This passage reports T/C results from PubChem BioAssay AID330 (DTP/NCI, 2004).

Where “and” joins values, the source holds several entries; their conditions need not be identical. Equal values may be shown once. Toxic doses and inconclusive results are not listed.

This test deals with P388 leukemia ip, CD2F1 mice, survival T/C. Description: NCI In Vivo Anticancer Drug Screen. Data for tumor model P388 Leukemia (intraperitoneal) in CD2F1 (CDF1) mice. The following applies: endpoint: median survival time, higher = longer survival. Put shortly:
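Mice carrying the transplanted tumor received test compound or vehicle. Survival was recorded in each group, and the value is the treated-group measurement divided by that of the vehicle-treated control group.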

Where [1] appears, read: dose: 50.0 mg/kg/injection, schedule: Q01DX005 (ip), vehicle: saline with Tween-80.
Setting [2] is: dose: 100.0 mg/kg/injection, schedule: Q01DX005 (ip), vehicle: saline with Tween-80.
Setting [3] is: dose: 200.0 mg/kg/injection, schedule: Q01DX005 (ip), vehicle: saline with Tween-80.
[4] abbreviates: dose: 60.0 mg/kg/injection, schedule: Q01DX005 (ip), vehicle: saline with Tween-80.
[5] abbreviates: dose: 120.0 mg/kg/injection, schedule: Q01DX005 (ip), vehicle: saline with Tween-80.
Where [6] appears, read: dose: 100.0 mg/kg/injection, schedule: Q01DX009 (ip), vehicle: saline with Tween-80.
Setting [7] is: dose: 50.0 mg/kg/injection, schedule: Q01DX009 (ip), vehicle: saline.
The mark [8] stands for this setting: dose: 100.0 mg/kg/injection, schedule: Q01DX009 (ip), vehicle: saline.

In the case of `CC1C(c2ccc3c(c2)OCO3)CC(Cl)CC12C=C1OCOC1=CC2=O` (stereo not drawn), the T/C runs as follows: (dose: 8.75 mg/kg/injection, schedule: Q01DX005 (ip), vehicle: Klucel (hydroxypropylcellulose) (HPC)) 101 % of control; (dose: 17.5 mg/kg/injection, schedule: Q01DX005 (ip), vehicle: Klucel (hydroxypropylcellulose) (HPC)) 101 % of control; (dose: 35.0 mg/kg/injection, schedule: Q01DX005 (ip), vehicle: Klucel (hydroxypropylcellulose) (HPC)) 105 % of control.
`COc1cc2nc3cc([N+](=O)[O-])ccc3c(Cl)c2cc1OC`: the T/C under setting [1] was 99 % of control, the T/C under setting [2] is 101 % of control and the T/C under setting [3] is 89 % of control.
`CC[N+](CC)(CC)CCOc1nc(OCC[N+](CC)(CC)CC)nc(OCC[N+](CC)(CC)CC)n1`: the T/C (dose: 6.25 mg/kg/injection, schedule: Q01DX009 (ip), vehicle: saline) was 100 % of control; the T/C (dose: 12.5 mg/kg/injection, schedule: Q01DX009 (ip), vehicle: saline) was 100 % of control; the T/C (dose: 25.0 mg/kg/injection, schedule: Q01DX009 (ip), vehicle: saline) was 100 % of control.
With `CC(NC(=O)c1ccc(C(C[N+](=O)[O-])SCCC(=O)O)cc1)C(=O)O` (stereo not drawn), the T/C was 98 % of control (dose: 60.0 mg/kg/injection, schedule: Q01DX005 (ip), vehicle: saline + Tween-80 + alcohol); 99 % of control (dose: 120.0 mg/kg/injection, schedule: Q01DX005 (ip), vehicle: saline + Tween-80 + alcohol); 107 % of control (dose: 240.0 mg/kg/injection, schedule: Q01DX005 (ip), vehicle: saline + Tween-80 + alcohol).
On to `COc1cccc2c1C(=O)c1c(O)c3c(c(O)c1C2=O)C[C@@](O)(C(C)=O)C[C@@H]3OC1CC(N2CCC(OC)CC2)C(O)C(C)O1` (stereo partly drawn), for which the T/C is, setting by setting: (dose: 0.39 mg/kg/injection, schedule: Q04DX003 (ip), vehicle: water) 114 % of control; (dose: 0.78 mg/kg/injection, schedule: Q04DX003 (ip), vehicle: water) 104 % of control; (dose: 1.56 mg/kg/injection, schedule: Q04DX003 (ip), vehicle: water) 111 % of control and 114 % of control; (dose: 6.25 mg/kg/injection, schedule: Q04DX003 (ip), vehicle: water) 181 % of control and 217 % of control; (dose: 12.5 mg/kg/injection, schedule: Q04DX003 (ip), vehicle: water) 118 % of control.
Turning to `COc1ccc(CCNc2ccc(NCCc3ccc(OC)c(OC)c3)c3c2C(=O)c2ccccc2C3=O)cc1OC`, the T/C reads like this: (dose: 25.0 mg/kg/injection, schedule: Q01DX009 (ip), vehicle: other) 88 % of control; (dose: 50.0 mg/kg/injection, schedule: Q01DX009 (ip), vehicle: other) 88 % of control; (dose: 200.0 mg/kg/injection, schedule: Q01DX009 (ip), vehicle: other) 101 % of control; (dose: 400.0 mg/kg/injection, schedule: Q01DX009 (ip), vehicle: other) 91 % of control.
Take `CCOC(=O)/C(C#N)=C/Nc1ccc(Cl)nc1Cl`: the T/C under setting [4] is 89 % of control and the T/C under setting [5] was 86 % of control.
As for `O=C1NC(=O)C2(CCCC2)c2ccncc21`, the T/C reads like this: (dose: 6.25 mg/kg/injection, schedule: Q04DX002 (ip), vehicle: saline with Tween-80) 96 % of control; (dose: 12.5 mg/kg/injection, schedule: Q04DX002 (ip), vehicle: saline with Tween-80) 96 % of control.
`COCC/C(COC)=N\N=C(/CCOC)COC`: the T/C reads like this: under setting [6], 109 % of control; (dose: 100.0 mg/kg/injection, schedule: Q04DX003 (ip), vehicle: saline sonified) 104 % of control; (dose: 200.0 mg/kg/injection, schedule: Q04DX003 (ip), vehicle: saline sonified) 100 % of control; (dose: 400.0 mg/kg/injection, schedule: Q04DX003 (ip), vehicle: saline sonified) 104 % of control.
Turning to `CCN=NNc1ccc(C)cc1`, the T/C (dose: 25.0 mg/kg/injection, schedule: Q01DX009 (ip), vehicle: saline with Tween-80) is 110 % of control.
`CC(C)(O)[C@@H]1Cc2cc3ccc(=O)oc3cc2O1`: the T/C is, setting by setting: (dose: 1.0 mg/kg/injection, schedule: Q01DX005 (ip), vehicle: Klucel (hydroxypropylcellulose) (HPC)) 89 % of control; (dose: 2.0 mg/kg/injection, schedule: Q01DX005 (ip), vehicle: Klucel (hydroxypropylcellulose) (HPC)) 102 % of control; (dose: 4.0 mg/kg/injection, schedule: Q01DX005 (ip), vehicle: Klucel (hydroxypropylcellulose) (HPC)) 98 % of control; (dose: 8.0 mg/kg/injection, schedule: Q01DX005 (ip), vehicle: Klucel (hydroxypropylcellulose) (HPC)) 96 % of control; (dose: 16.0 mg/kg/injection, schedule: Q01DX005 (ip), vehicle: Klucel (hydroxypropylcellulose) (HPC)) 96 % of control.
As to `O=C(N=Nc1c(Cl)c(O)c2ccccc2c1O)C(F)(F)F`, the T/C reads like this: (dose: 1.56 mg/kg/injection, schedule: Q01DX009 (ip), vehicle: saline with Tween-80) 101 % of control; (dose: 3.13 mg/kg/injection, schedule: Q01DX009 (ip), vehicle: saline with Tween-80) 110 % of control; (dose: 6.25 mg/kg/injection, schedule: Q01DX009 (ip), vehicle: saline with Tween-80) 115 % of control.
With `CCCCCCC(/C=C/c1ccc(Cl)cc1)=N\O`, the T/C was 106 % of control (dose: 25.0 mg/kg/injection, schedule: Q01DX009 (ip), vehicle: Klucel (hydroxypropylcellulose) (HPC)); 104 % of control (dose: 50.0 mg/kg/injection, schedule: Q01DX009 (ip), vehicle: Klucel (hydroxypropylcellulose) (HPC)); 100 % of control and 108 % of control (dose: 100.0 mg/kg/injection, schedule: Q01DX009 (ip), vehicle: Klucel (hydroxypropylcellulose) (HPC)).
For `CC1CN1C(=O)Nc1cccc(Cl)c1` (stereo not drawn), the T/C was 100 % of control under setting [7] and 102 % of control under setting [8].
Consider `CN(C)CCSSCCN(C)C.[Cl][Zn][Cl]`, for which the T/C runs as follows: (dose: 6.25 mg/kg/injection, schedule: Q01DX005 (ip), vehicle: Klucel (hydroxypropylcellulose) (HPC)) 102 % of control; (dose: 12.5 mg/kg/injection, schedule: Q01DX005 (ip), vehicle: Klucel (hydroxypropylcellulose) (HPC)) 95 % of control; (dose: 25.0 mg/kg/injection, schedule: Q01DX005 (ip), vehicle: Klucel (hydroxypropylcellulose) (HPC)) 97 % of control.
For the compound `Cc1ccnc(Sc2ccc([N+](=O)[O-])cc2[N+](=O)[O-])n1`, the T/C runs as follows: under setting [7], 102 % of control; under setting [8], 104 % of control; (dose: 200.0 mg/kg/injection, schedule: Q01DX009 (ip), vehicle: saline) 100 % of control.
As to `[N-]=[N+]=CC(=O)C1OC12C1CC3CC(C1)CC2C3` (stereo not drawn), the T/C reads like this: (dose: 25.0 mg/kg/injection, schedule: Q01DX005 (ip), vehicle: saline with Tween-80) 86 % of control; under setting [1], 105 % of control; under setting [2], 113 % of control; under setting [3], 113 % of control.
As for `N#CC(C#N)=C(O)/C(=C/c1ccc(Cl)cc1Cl)NC(=O)c1ccccc1`, the T/C was 107 % of control under setting [4]; 98 % of control under setting [5]; 100 % of control (dose: 240.0 mg/kg/injection, schedule: Q01DX005 (ip), vehicle: saline with Tween-80).
With `O=C(NO)c1coc2ccccc2c1=O`, the T/C was 101 % of control under setting [4] and 103 % of control under setting [5].
In the case of `CC(C)C(CO)NC(=O)c1ccccc1` (stereo not drawn), the T/C is 95 % of control (dose: 100.0 mg/kg/injection, schedule: Q04DX002 (ip), vehicle: Klucel (hydroxypropylcellulose) (HPC)); 96 % of control (dose: 200.0 mg/kg/injection, schedule: Q04DX002 (ip), vehicle: Klucel (hydroxypropylcellulose) (HPC)); 95 % of control (dose: 400.0 mg/kg/injection, schedule: Q04DX002 (ip), vehicle: Klucel (hydroxypropylcellulose) (HPC)).
In the case of `CCC12OCCN1CC(C)O2` (stereo not drawn), the T/C runs as follows: (dose: 50.0 mg/kg/injection, schedule: Q01DX009 (ip), vehicle: saline with Tween-80) 98 % of control; under setting [6], 111 % of control; (dose: 200.0 mg/kg/injection, schedule: Q01DX009 (ip), vehicle: saline with Tween-80) 113 % of control; (dose: 400.0 mg/kg/injection, schedule: Q01DX009 (ip), vehicle: saline with Tween-80) 119 % of control.
As to `COc1cc(/C=C2\N=C(C)OC2=O)ccc1O`, the T/C was 106 % of control (dose: 50.0 mg/kg/injection, schedule: Q01DX005 (ip), vehicle: Klucel (hydroxypropylcellulose) (HPC)); 101 % of control (dose: 100.0 mg/kg/injection, schedule: Q01DX005 (ip), vehicle: Klucel (hydroxypropylcellulose) (HPC)); 104 % of control (dose: 200.0 mg/kg/injection, schedule: Q01DX005 (ip), vehicle: Klucel (hydroxypropylcellulose) (HPC)).
